In US10870638B2, “Pyridazinone compound or its salt, and herbicide containing it” (ISHIHARA SANGYO KAISHA, LTD., priority 2016, dated 2020):

Columns and labels:
Format in all cases: in vivo
Details in all cases: 14th day after application
[1] = test system: prickly sida (Sida spinosa L.); assay: Test Example 2: soil application on the day after sowing, growth inhibition rate on 14th day
In short: (§1)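 Field soil in 1/300,000 ha pots was sown, and the next day compounds formulated as wettable powders or emulsifiable concentrates were diluted in water (1,000 L/ha) and soil-sprayed at the prescribed active ingredient rates. Growth inhibition was scored visually 14 days later, 0 (untreated) to 100 (complete kill).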

[2] = test system: crabgrass (Digitaris sanquinalis L.); assay: as above
In short: as §1

[3] = test system: soybean (Glycine max Merr.); assay: as above
In short: as §1

[4] = test system: green foxtail (Setaria viridis L.); assay: as above
In short: as §1

[5] = test system: velvetleaf (Abutilon theophrasti MEDIC.); assay: as above
In short: as §1

rice (Oryza sativa L.) [6] = assay: as above
In short: as §1

[7] = test system: wheat (Triticum aestivum L.); assay: as above
In short: as §1

corn (Zea mays L.) [8] = assay: as above
In short: as §1

[9] = test system: barnyardgrass (Echinochloa crus-qalli L.); assay: as above
In short: as §1

[10] = test system: redroot pigweed (Amaranthus retroflexus L.); assay: as above
In short: as §1

[11] = test system: soybean (Glycine max Merr.); assay: Test Example 1: foliar treatment, growth inhibition rate on 14th day
In short: (§2)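 Sow seeds in upland soil pots; at target leaf stage (wild oat 0.4–1.2, rice 0.2–2.7, foxtail 0.5–3.2, soybean primary leaf) spray formulated compound in water, 1,000 L/ha, 0.1 vol % surfactant. Score inhibition visually at day 14, 0–100%.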

[12] = test system: green foxtail (Setaria viridis L.); assay: as above
In short: as §2

rice (Oryza sativa L.) [13] = assay: as above
In short: as §2

[14] = test system: crabgrass (Digitaria sanquinalis L.); assay: as above
In short: (§3)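 Using a small sprayer, formulated compound in water (0.1 vol % surfactant, 1,000 L/ha) was applied to seedlings grown from seed in upland soil. Fourteen days on, growth state was observed and expressed as percent inhibition from 0 to 100.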

[15] = test system: wheat (Triticum aestivum L.); assay: as above
In short: as §3

corn (Zea mays L.) [16] = assay: as above
In short: as §3

[17] = test system: barnyardgrass (Echinochloa crus-qalli L.); assay: as above
In short: as §3

[18] = test system: wild oat (Avena fatua L.); assay: as above
In short: as §2

[19] = test system: redroot pigweed (Amaranthus retroflexus L.); assay: as above
In short: as §3

[20] = test system: italian ryegrass (Lolium multiflorum Lam.); assay: as above
In short: as §3

[21] = active ingredient amount 31 g/ha
[22] = active ingredient amount 31 g/ha, visual, 0 = non-treated, 100 = complete kill
[23] = active ingredient amount 500 g/ha

| Compound | Growth inhibition rate (%) Prickly sida [1, 21] | Growth inhibition rate (%) Crabgrass [2, 21] | Growth inhibition rate (%) Soybean [3, 21] | Growth inhibition rate (%) Green foxtail [4, 21] | Growth inhibition rate (%) Velvetleaf [5, 21] | Growth inhibition rate (%) Rice (rice (Oryza sativa L.) [6]; [21]) | Growth inhibition rate (%) Wheat [7, 21] | Growth inhibition rate (%) Corn (corn (Zea mays L.) [8]; [21]) | Growth inhibition rate (%) Barnyardgrass [9, 21] | Growth inhibition rate (%) Redroot pigweed [10, 21] | Growth inhibition rate (%) Soybean [11, 21] | Growth inhibition rate (%) Green foxtail [12, 21] | Growth inhibition rate (%) Rice (rice (Oryza sativa L.) [13]; [21]) | Growth inhibition rate (%) Crabgrass [14, 21] | Growth inhibition rate (%) Wheat [15, 21] | Growth inhibition rate (%) Corn (corn (Zea mays L.) [16]; [21]) | Growth inhibition rate (%) Barnyardgrass [17, 21] | Growth inhibition rate (%) Wild oat [18, 21] | Growth inhibition rate (%) Redroot pigweed [19, 21] | Growth inhibition rate (%) Italian ryegrass [20, 21] | also measured |
| --- | --- | --- | --- | --- | --- | --- | --- | --- | --- | --- | --- | --- | --- | --- | --- | --- | --- | --- | --- | --- | --- |
| Cc1ccc(Oc2cnc3cc(Cl)ccc3n2)cc1-c1c(OC(=O)Oc2ccc(F)cc2)c(C)nn(C)c1=O [Compound 3-57] | 0% | 30% | 30% | 95% | 0% | 0% | 0% | 40% | 90% | 0% |  |  |  |  |  |  |  |  |  |  | Growth inhibition rate (%) Soybean [11, 22]: 25%; Growth inhibition rate (%) Green foxtail [12, 22]: 100%; Growth inhibition rate (%) Rice (rice (Oryza sativa L.) [13]; [22]): 0%; Growth inhibition rate (%) Crabgrass [14, 22]: 99%; Growth inhibition rate (%) Wheat [15, 22]: 95%; Growth inhibition rate (%) Corn (corn (Zea mays L.) [16]; [22]): 25%; Growth inhibition rate (%) Barnyardgrass [17, 22]: 100%; Growth inhibition rate (%) Wild oat [18, 22]: 99%; Growth inhibition rate (%) Redroot pigweed [19, 22]: 0%; Growth inhibition rate (%) Italian ryegrass [20, 22]: 95% |
| Cc1ccc(Oc2ccc3ccccc3n2)cc1-c1c(O)c(C)nn(C)c1=O [Compound 2-108] |  |  |  |  |  |  |  |  |  |  |  |  |  |  |  |  |  |  |  |  | Growth inhibition rate (%) Prickly sida [1, 23]: 0%; Growth inhibition rate (%) Crabgrass [2, 23]: 98%; Growth inhibition rate (%) Soybean [3, 23]: 0%; Growth inhibition rate (%) Green foxtail [4, 23]: 93%; Growth inhibition rate (%) Velvetleaf [5, 23]: 0%; Growth inhibition rate (%) Rice (rice (Oryza sativa L.) [6]; [23]): 93%; Growth inhibition rate (%) Wheat [7, 23]: 0%; Growth inhibition rate (%) Corn (corn (Zea mays L.) [8]; [23]): 0%; Growth inhibition rate (%) Barnyardgrass [9, 23]: 100%; Growth inhibition rate (%) Redroot pigweed [10, 23]: 0%; Growth inhibition rate (%) Soybean [11, 23]: 20%; Growth inhibition rate (%) Green foxtail [12, 23]: 95%; Growth inhibition rate (%) Rice (rice (Oryza sativa L.) [13]; [23]): 93%; Growth inhibition rate (%) Crabgrass [14, 23]: 85%; Growth inhibition rate (%) Wheat [15, 23]: 50%; Growth inhibition rate (%) Corn (corn (Zea mays L.) [16]; [23]): 10%; Growth inhibition rate (%) Barnyardgrass [17, 23]: 100%; Growth inhibition rate (%) Wild oat [18, 23]: 50%; Growth inhibition rate (%) Redroot pigweed [19, 23]: 0%; Growth inhibition rate (%) Italian ryegrass [20, 23]: 10% |
| CC(=O)Oc1c(C)nn(C)c(=O)c1-c1cc(Oc2ccc(C(F)(F)F)cn2)ccc1C [Compound 2-61] | 0% | 50% | 0% | 98% | 0% | 0% | 0% | 0% | 65% | 0% | 0% | 95% | 90% | 78% | 95% | 95% | 99% | 98% | 0% | 93% |  |
| Cc1ccc(Oc2ncc(C(F)(F)F)cc2Cl)cc1-c1c(O)c(C)nn(C)c1=O [1-1] | 0% | 100% | 0% | 100% | 0% | 20% | 0% | 50% | 85% | 0% | 0% | 99% | 80% | 95% | 65% | 90% | 100% | 98% | 10% | 98% |  |
